Experimental data from patent US7041815B2, “Sporamin promoter and uses thereof” (Sinon Corporation, priority 2001, dated 2006).

Key:
Type in all cases: in vivo, Nicotiana tabaccum cv. W38
[1] = tested on: sporamin promoter fused to the GUS reporter gene; test: Pspoa-GUS activity in response to elicitors sprayed onto leaves (fluorometric GUS assay); settings: for effect on the sporamin promoter function (in words): treatment alone
Method: The plasmid was transformed into tobacco cells (Nicotiana tabaccum cv. W38) using Agrobacterium tumefaciens LBA4404 in the leaf disc method (Hörsch et al. (1985). Science 227:1229–1231). […] Two lines, Tspoa11 and Tspoa37 were selected for further analysis. GUS activity was measured in the leaves of plants obtained from these lines as follows. A middle leaf of the mature tobacco plant was injured with a scissors. Two hours later, wounded and unwounded leaves were harvested, mixed with GUS extraction buffer (50 mM sodium phosphate, pH 7.0, 10 mM EDTA, 10 mM β-mercaptoethanol, 0.1% sodium lauryl sarcosine, 0.1% Triton X-100), frozen, and grounded into a fine powder with a mortar and pestle while in liquid nitrogen. The sample was thawed and centrifuged at 12,000×g for 10 minutes at 4° C. The total protein content was determined using the method of Bradford ((1976) Anal. Biochem. 72:248–254). GUS activity was measured in a fluorometric assay by the addition of 4-methylumbelliferyl-β-D-glucuronide substrate and monitoring the reaction in a […] to determine […] of activity following the method of Jefferson ((1987) EMBO J 6:3901–3908).
The activity the Pspoa-GUS fusion was monitored in response to spraying with the elicitor, methyl jasmonate. Solutions of 50 μM and 100 μM methyl jasmonate were prepared and sprayed onto leaves using a commercial atomizer. Sodium phosphate buffer, pH 7.0, was used as a control solution.
The activity of the sporamin promoter fused to the GUS reporter gene was monitored in response to abscisic acid (ABA). Solutions of 100 μM and 200 μM ABA were prepared and sprayed onto leaves using a commercial atomizer.

[2] = tested on: sporamin promoter fused to the GUS reporter gene; test: as above; settings: 1 mM sprayed onto leaves of Pspoa-GUS tobacco
[3] = tested on: GUS reporter gene; test: Pspoa-GUS activity in response to leaf wounding (fluorometric GUS assay)
Text: To analyze the properties of the sporamin promoter, the promoter was operably linked to the reporter gene β-glucuronidase (GUS). The plasmid pBI101 is a Ti plasmid binary vector harboring the GUS gene in a form lacking a promoter (Clontech, Palo Alto Calif.). The sporamin promoter was excised with the restriction endonucleases XbaI and BamHI, isolated, and ligated into compatible sites of a restricted pBI101 nucleic acid. The resulting plasmid construct, termed pBI101/Pspoa, was verified by restriction mapping and nucleic acid sequencing.
Two lines, Tspoa11 and Tspoa37 were selected for further analysis. GUS activity was measured in the leaves of plants obtained from these lines as follows. A middle leaf of the mature tobacco plant was injured with a scissors. Two hours later, wounded and unwounded leaves were harvested, mixed with GUS extraction buffer (50 mM sodium phosphate, pH 7.0, 10 mM EDTA, 10 mM β-mercaptoethanol, 0.1% sodium lauryl sarcosine, 0.1% Triton X-100), frozen, and grounded into a fine powder with a mortar and pestle while in liquid nitrogen. The sample was thawed and centrifuged at 12,000×g for 10 minutes at 4° C.
GUS activity was monitored as described above at various intervals after leaf wounding.

[4] = 100 μM sprayed onto leaves of Pspoa-GUS tobacco
[5] = 200 μM sprayed onto leaves of Pspoa-GUS tobacco

## CC/C=C\CC1C(=O)CCC1CC(=O)OC (stereo not shown) [methyl jasmonate]
[1]; 50 μM sprayed onto leaves of Pspoa-GUS tobacco
  GUS activity: 420 nmole MU/min/mg protein
[1]; [4]
  GUS activity: 225 nmole MU/min/mg protein
[1]; two hours after spraying with 50 μM
  GUS activity increase: 37 fold
[1]; two hours after spraying with 100 μM
  GUS activity increase: 20 fold

## CC1=CC(=O)CC(C)(C)[C@@]1(O)/C=C/C(C)=C\C(=O)O [ABA, abscisic acid]
[1]; [4]
  GUS activity: 170 nmole MU/min/mg protein
[1]; 100 μM, fluorometric assay
  induction of the sporamin promoter (in words): potent inducer
[1]; [5]
  GUS activity: 60 nmole MU/min/mg protein

## C=C [ethylene]
[1]
  effect on the sporamin promoter function (in words): no effect

## O=C(O)c1ccccc1O [SA, salicylic acid]
[1]; [5]
  GUS activity: 15 nmole MU/min/mg protein
[1]; pre-treatment before wounding / methyl jasmonate
  sporamin promoter activity when treatment precedes wounding or methyl jasmonate treatment (in words): less sporamin promoter activity was observed
[1]
  effect on the sporamin promoter function (in words): no effect
[2]
  GUS activity: 21 nmole MU/min/mg protein

B1: sporamin promoter: 1.25 kb sweet potato (Ipomoea batatas) sporamin promoter sequence, SEQ ID NO:1 (nucleic acid)
DNA: CGACGGCCCGGGCTAGGTCAAGTAACCCGAACTTGGTCAAGTTTGTTATAACTTATTCTCCCTTTTTCGTGAGGGCGGTTAGGGGACTTAGTATAAATAGGAGTGTAATCGGGCTTGTTAAGACATATTGAACTCACCTGTAATAGCATTACATTTCTCGTAAATACGTACAATATCCTTGTCTTTCCAATAACATTTTTGTCTTTTACCATTATCTTTTATCCAATCCTTTAATTATCGAGTTTGTTAATTCAGATCACCCAAATTAATTAAATCCATCATTTGGATTAAGTTATCTTACTTTACTAATTAGAGTTTTTATCTTCAGAGGAAGGAAGAAGAAAATTAATTGACATGACTCTCATCGGGTTGCACTCCACCCATTATGTTATACAATGCAAACTCTTTTAAAATAAATTAAAATTATATATATATATAATAGTGCAACCTACATCACTTTTTCAATGTGGGACGAAAGCACCTTCAAAAGTCTTTCGAACCCCATTTTTCCTCGAATATATTTTGAGAATCAATTTCTCAATTAATCATTATTATCCATCTTCGTGTACATATATAATATATATATCACATTAAACATCTAACTTAGAAGAACTCAAATTTATTTTTAACTCTACTTATATCAAAAGTGGACTCTACTGAAAATTATACCACAAAATGATATTTTAAACGTTATATTTAACAAAAATTTCTGACATTATCTTATTTAATCTTCTACTAGTTAGAATAATAAAACAAATTTCACTCATAACATAAATTTAAATAGTGATCGTGAATTTTTACGGAAATTAATCAAATAATTGTATGTAATAATGTAATGTAATGAATTTTGATGATGGGTAAAATGTATTTTAATTATTACACGACTTGCCTTCTTTAATTTGTTCTTAGGATCCTAGACTTCATCCCTGCATAGCAAAACCATTGGACACTTGGACGGCCACAAATCATTTCTATTTTCTCCCAACTCCTCCTGTCAGCATGGGATCATTATCAACTTTATCTCATCCCATTACACACCGTAAGTGTACCATCCATCGCTCAATCACTGTATACTTAAATCTCCAGATTAAGTCACTAAATAACTGTGTTGGACTGTGAAAACTTTGAGTAAAAAAAGGCAAAATACTCTTAAAACTGTACAAAAAACAATAATTCAACCCTTACTCTTGTTGTCTATAAATTGGATGCATGAGAGCTCAACACAACACAACACCACCAACAAATTAAACATCATTACCTCTTAGCTTTTCTCCCAAGTTGTC
modifications: Ipomoea batatas
[3]; leaf wounding
  time GUS expression remained above 250 nmole MU/min/mg after wounding: at least 50 hours
  time to induction of GUS expression after wounding: ≤ 15 min
[3]; maximum at 12 hours after wounding
  maximum GUS expression level over the uninduced (unwounded) level: 16 fold
[3]; within 2 hours of wounding
  level of GUS expression after leaf wounding: over 250 nmole MU/min/mg of protein
